Target: T1, 5-HT4 receptor (Cavia porcellus, UniProt O70528)
T1 construct: Longitudinal muscle-myenteric plexus preparations, approximately 3 cm long, are obtained from the distal colon region; from tissue; host or cells: guinea-pig distal colon, longitudinal muscle-myenteric plexus preparation
Assay: Guinea pig colon longitudinal muscle-myenteric plexus, antagonism of 5-HT-evoked contraction
Details: guinea-pig distal colon; contraction evoked by 5-HT; methiothepin 10^-7 M and granisetron 10^-6 M present; read-out: pIC50 (-log concentration of antagonist which reduces the contraction by 50%) (converted)
Experimental: Male guinea-pigs, weighing 250-400 g are used. Longitudinal muscle-myenteric plexus preparations, approximately 3 cm long, are obtained from the distal colon region. These are suspended under a 0.5 g load in isolated tissue baths containing Krebs solution bubbled with 5% CO2 in O2 and maintained at 37° C. In all experiments, the Krebs solution also contains methiothepin 10^-7 M and granisetron 10^-6 M to block effects at 5-HT1, 5-HT2 and 5-HT3 receptors.
After construction of a simple concentration-response curve with 5-HT, using 30 s contact times and a 15 min dosing cycle, a concentration of 5-HT is selected so as to obtain a contraction of the muscle approximately 40-70% maximum(10^-9 M approx). The tissue is then alternately dosed every 15 min with this concentration of 5-HT and then with an approximately equi-effective concentration of the nicotine receptor stimulant, dimethylphenylpiperazinium (DMPP). After obtaining consistent responses to both 5-HT and DMPP, increasing concentrations of a putative 5-HT4 receptor antagonist are then added to the bathing solution. The effects of this compound are then determined as a percentage reduction of the contractions evoked by 5-HT or by DMPP. […] A compound which reduces the response to 5-HT but not to DMPP is believed to act as a 5-HT4 receptor antagonist.

T1 sequence (O70528 whole entry): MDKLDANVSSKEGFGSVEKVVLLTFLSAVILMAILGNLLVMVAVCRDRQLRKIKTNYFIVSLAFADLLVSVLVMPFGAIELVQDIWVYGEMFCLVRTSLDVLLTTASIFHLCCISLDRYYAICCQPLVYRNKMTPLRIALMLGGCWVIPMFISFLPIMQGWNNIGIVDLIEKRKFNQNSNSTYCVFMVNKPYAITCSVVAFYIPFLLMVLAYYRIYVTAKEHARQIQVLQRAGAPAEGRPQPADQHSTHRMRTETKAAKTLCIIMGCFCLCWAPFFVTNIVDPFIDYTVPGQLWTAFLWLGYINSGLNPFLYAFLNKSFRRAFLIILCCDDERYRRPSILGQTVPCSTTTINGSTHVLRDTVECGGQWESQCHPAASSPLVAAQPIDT

## Nc1c(Cl)cc(C(=O)OCC2CCN(Cc3cccnc3)CC2)c2c1OCCO2 [Example E1, 5-(1-(3-Pyridylmethyl)-4-piperidinyl)methyl-8-amino-7-chloro-1,4-benzodioxancarboxylate]
  IC50: < 1 nM

Source: patent publication US5705498A, “Piperidine derivatives as 5-HT4 receptor antagonists” (SmithKline Beecham plc., priority 1992, dated 1998)
